Test results as given in patent US20230020329A1, “Annelated 9-hydroxy-1,8-dioxo-1,3,4,8-tetrahydro-2H-pyrido[1,2-a]pyrazine-7-carboxamides as HIV integrase inhibitors, methods of preparation and application thereof” (priority 2019, published 2023).

These molecules were tested on HIV-1 (IIIB strain) (assay: Anti-HIV cytoprotection assay (XTT), HIV-1 IIIB in CEM-SS cells). Conditions: Human immunodeficiency virus 1, IIIB, CEM-SS, CEM-SS cell line; read-out: Inhibitory activity (EC50) against HIV-1 (IIIB strain).
Assay type: cell-based
Description: a) Inhibitory Activity of the Lymphocytropic Virus Strain HIV-1 (IIIB) in the CEM-SS Cell Line.
The evaluation was done by ImQuest BioSciences, Inc. (Frederick, Md., USA). CEM-SS cells [Foley G. E. et al. Continuous Culture of Human Lymphoblasts from Peripheral Blood of a Child with Acute Leukemia. Cancer 1965, 18, 522-529] obtained through the NIH AIDS Research and Reference Reagent Program (Manassas, Va., USA) were passaged in T-75 flasks prior to use cell culture medium consisting of RPMI1640 medium (Lonza; Walkersville, Md., USA) supplemented with 10% heat inactivated fetal bovine serum (Gibco; Grand Island, N.Y.), […] L-glutamine (Lonza), […] penicillin (Lonza) and […] streptomycin (Lonza) for antiviral analysis. The CEM-SS cells were kept in RPMI 140 medium supplemented with 10% heat inactivated bovine fetal serum, 2 mM glutamine, 100 U/ml penicillin, and 100 μg/ml streptomycin.
A lymphocytropic HIV-1 IIIB strain [Popovic, M. et al. Detection, isolation, and continuous production of cytopathic retroviruses (HTLV-III) from patients with AIDS and pre-AIDS. Science. 1984, 224 (4648), 497-500] was chosen for a virus to be analyzed. The virus was obtained through the NIH AIDS Research and Reference Reagents Program and grown in CEM-SS cells to produce a stock virus pool. A pre-titrated aliquot of the virus was removed from the freezer (−80° C.) and allowed to slowly thaw to room temperature in a biological safety cabinet. The virus was diluted in a tissue culture medium so that the amount of virus added in 50 μl per well was sufficient to kill 85 to 95% of the cells 6 days after infection. HIV-1 IIIB was grown and titrated in CEM-SS cells. The inhibitory effect of […] was evaluated in CEM-SS cells as described earlier [Nara, P. L. at al. Simple, rapid, quantitative, syncytium-forming microassay for the detection of human immunodeficiency virus neutralizing antibody. AIDS Res. Hum. Retroviruses 1987, 3, 283-302.] in microtiter plate anti-HIV assays to quantitatively assess the ability of a compound to inhibit HIV-induced cell death. Quantification was carried out using 2,3-bis-(2-methoxy-4-nitro-5-[…])-(2H)-tetrazolium-5-carboxanilide (XTT) tetrazolium, which is metabolized to a stained formazan product through viable […] The compounds given in Table 1 were dissolved at 10 μM in DMSO and stored at −20° C.
Test materials were evaluated using antiviral assays in triplicate in concentrations of 30 and 10 nM. The compounds shown in table 1 were dissolved at 10 μM in DMSO and stored at −20° C. […] Sixty nanomolar concentrations of each compound (2 times that of the test concentration in the well) were prepared by diluting 10 μM DMSO stock 1:100 in cell culture medium (10 μl of compound added to 990 μl of the medium) followed by 1:10 dilution (10 μl of the compound was added to 90 μl of the medium), then 6 μl was added to 994 μl of the medium; […] μl was added to a 96-well microtiter plate in triplicate to ensure efficacy and one colorimetric well. Twenty nanomolar concentrations of each compound (twice as much as the test concentration in the well) were prepared by diluting 10 μM DMSO with the original 1:100 in cell culture medium (10 μl of the compound added to 990 μl of the medium) followed by diluting […] (10 μl of the compound was added to 900 μl of the medium), then 20 μl was added to 980 μl of the medium; 100 μl was added to a 96-well microtiter plate in triplicate to ensure efficacy and one colorimetric well.
Azidothymidine (AZT) was purchased from Sigma Aldrich (USA) and evaluated as a positive control compound in an antiviral assay using a six-concentration reaction curve on each assay plate.
Test compounds were initially evaluated for HIV-1 IIIB strain in CEM-SS cells at test concentrations of 30 and 10 nM. […]

| SMILES | EC50 [µM] |
| --- | --- |
| Cc1nonc1CNC(=O)c1cn2c(c(O)c1=O)C(=O)N1[C@@H](C)CO[C@@H]1C2 [Compound 1.1.12, (3S,11aR)-6-hydroxy-3-methyl-N-[(4-methyl-1,2,5-oxadiazol-3-yl)methyl]-5,7-dioxo-2,3,5,7,11,11a-hexahydro[1,3]oxazolo[3,2-a]pyrido[1,2-d]pyrazine-8-carboxamide] | 0.01 to 0.03 |
| Cc1n[nH]c(C)c1CNC(=O)c1cn2c(c(O)c1=O)C(=O)N1[C@@H](C)CO[C@@H]1C2 [Compound 1.1.4, (3S,11aR)-6-hydroxy-N-[(3,5-dimethyl-1H-pyrazol-4-yl)methyl]-3-methyl-5,7-dioxo-2,3,5,7,11,11a-hexahydro[1,3]oxazolo[3,2-a]pyrido[1,2-d]pyrazine-8-carboxamide] | ~0.008 |
| Cc1coc(CNC(=O)c2cn3c(c(O)c2=O)C(=O)N2[C@@H](C)CO[C@@H]2C3)n1 [Compound 1.1.9, (3S,11aR)-6-hydroxy-3-methyl-N-[(4-methyl-1,3-oxazol-2-yl)methyl]-5,7-dioxo-2,3,5,7,11,11a-hexahydro[1,3]oxazolo[3,2-a]pyrido[1,2-d]pyrazine-8-carboxamide] | > 0.03 |
| C[C@H]1CO[C@@H]2Cn3cc(C(=O)NCc4nccs4)c(=O)c(O)c3C(=O)N12 [Compound 1.1.8, (3S,11aR)-6-hydroxy-3-methyl-N-(1,3-thiazol-2-ylmethyl)-5,7-dioxo-2,3,5,7,11,11a-hexahydro[1,3]oxazolo[3,2-a]pyrido[1,2-d]pyrazine-8-carboxamide] | 0.002 to 0.01 |
| C[C@H]1CO[C@@H]2Cn3cc(C(=O)NCc4cn5cc(Cl)sc5n4)c(=O)c(O)c3C(=O)N12 [Compound 1.1.28, (3S,11aR)-6-hydroxy-3-methyl-N-[(2-chloroimidazo[2,1-b][1,3]thiazol-6-yl)methyl]-5,7-dioxo-2,3,5,7,11,11a-hexahydro[1,3]oxazolo[3,2-a]pyrido[1,2-d]pyrazine-8-carboxamide] | > 0.03 |
| Cc1ccc2[nH]c(CNC(=O)c3cn4c(c(O)c3=O)C(=O)N3[C@@H](C)CO[C@@H]3C4)nc2c1 [Compound 1.1.40, (3S,11aR)-6-hydroxy-3-methyl-N-[(5-methyl-1H-benzimidazol-2-yl)methyl]-5,7-dioxo-2,3,5,7,11,11a-hexahydro[1,3]oxazolo[3,2-a]pyrido[1,2-d]pyrazine-8-carboxamide] | > 0.03 |
| C[C@H]1CO[C@@H]2Cn3cc(C(=O)NCc4cnc5cnccn45)c(=O)c(O)c3C(=O)N12 [Compound 1.1.59, (3S,11aR)-6-hydroxy-N-(imidazo[1,2-a]pyrazin-3-ylmethyl)-3-methyl-5,7-dioxo-2,3,5,7,11,11a-hexahydro[1,3]oxazolo[3,2-a]pyrido[1,2-d]pyrazine-8-carboxamide] | > 0.03 |
| C[C@H]1CO[C@@H]2Cn3cc(C(=O)NCc4cnc5ccccc5c4)c(=O)c(O)c3C(=O)N12 [Compound 1.1.50, (3S,11aR)-6-hydroxy-3-methyl-N-(quinolin-3-ylmethyl)-5,7-dioxo-2,3,5,7,11,11a-hexahydro[1,3]oxazolo[3,2-a]pyrido[1,2-d]pyrazine-8-carboxamide] | 0.002 to 0.01 |
| C[C@H]1CO[C@@H]2Cn3cc(C(=O)NCc4c(F)ccnc4F)c(=O)c(O)c3C(=O)N12 [Compound 1.1.21, (3S,11aR)-6-hydroxy-N-[(2,4-difluoropyridin-3-yl)methyl]-3-methyl-5,7-dioxo-2,3,5,7,11,11a-hexahydro[1,3]oxazolo[3,2-a]pyrido[1,2-d]pyrazine-8-carboxamide] | > 0.03 |
| Cc1ccc(CNC(=O)c2cn3c(c(O)c2=O)C(=O)N2[C@@H](C)CO[C@@H]2C3)o1 [Compound 1.1.3, (3S,11aR)-6-hydroxy-3-methyl-N-[(5-methyl-2-furyl)methyl]-5,7-dioxo-2,3,5,7,11,11a-hexahydro[1,3]oxazolo[3,2-a]pyrido[1,2-d]pyrazine-8-carboxamide] | 0.002 to 0.01 |
| C[C@@H]1CCO[C@H]2Cn3cc(C(=O)NCc4c(F)cc(F)nc4F)c(=O)c(O)c3C(=O)N12 [Compound 1.2.3, (4R,12aS)-7-hydroxy-4-methyl-N-[(2,4.6-trifluoropyridin-3-yl)methyl]-6,8-dioxo-3,4,6,8,12,12a-hexahydro-2H-pyrido[1′,2′:4,5]pyrazino[2,1-b][1,3]oxazine-9-carboxamide] | 0.002 to 0.01 |
| C[C@@H]1CO[C@@]23CCC[C@@H]2n2cc(C(=O)NCc4c(F)cncc4F)c(=O)c(O)c2C(=O)N13 [Compound 2.1.2, (3aS,6R,13aS)-9-hydroxy-N-[(3,5-difluoropyridin-4-yl)methyl]-6-methyl-8,10-dioxo-1,2,3,5,6,8,10,13a-octahydrocyclopenta[b][1,3]oxazolo[3,2-a]pyrido[1,2-d]pyrazine-11-carboxamide] | 0.002 to 0.01 |
| O=C(NCc1ccc(F)nc1F)c1cn2c(c(O)c1=O)C(=O)N1[C@H]3CC[C@H](C3)O[C@@H]1C2 [Compound 1.3.1, (2R,5S,13aR)-8-hydroxy-N-[(2,6-difluoropyridin-3-yl)methyl]-7,9-dioxo-2,3,4,5,7,9,13,13a-octahydro-2,5-methanopyrido[1′,2′:4,5]pyrazino[2,1-b][1,3]oxazepine-10-carboxamide] | 0.002 to 0.01 |
| C[C@H]1CO[C@@H]2Cn3cc(C(=O)NCc4ccc5ccccc5n4)c(=O)c(O)c3C(=O)N12 [Compound 1.1.49, (3S,11aR)-6-hydroxy-3-methyl-N-(quinolin-2-ylmethyl)-5,7-dioxo-2,3,5,7,11,11a-hexahydro[1,3]oxazolo[3,2-a]pyrido[1,2-d]pyrazine-8-carboxamide] | 0.002 to 0.01 |
| C[C@H]1CO[C@@H]2Cn3cc(C(=O)NCc4nc5cc(F)ccc5[nH]4)c(=O)c(O)c3C(=O)N12 [Compound 1.1.41, (3S,11aR)-6-hydroxy-3-methyl-N-[(5-ϕTopo-1H-benzimidazol-2-yl)methyl]-5,7-dioxo-2,3,5,7,11,11a-hexahydro[1,3]oxazolo[3,2-a]pyrido[1,2-d]pyrazine-8-carboxamide] | 0.01 to 0.03 |
| C[C@H]1CO[C@@H]2Cn3cc(C(=O)NCc4ccc5c(c4)OCO5)c(=O)c(O)c3C(=O)N12 [Compound 1.1.34, (3S,11aR)-N-(1,3-benzodioxol-5-ylmethyl)-6-hydroxy-3-methyl-5,7-dioxo-2,3,5,7,11,11a-hexahydro[1,3]oxazolo[3,2-a]pyrido[1,2-d]pyrazine-8-carboxamide] | 0.002 to 0.01 |
| Cc1nccc(CNC(=O)c2cn3c(c(O)c2=O)C(=O)N2[C@@H](C)CO[C@@H]2C3)n1 [Compound 1.1.26, (3S,11aR)-6-hydroxy-3-methyl-N-[(2-methylpyrimidin-4-yl)methyl]-5,7-dioxo-2,3,5,7,11,11a-hexahydro[1,3]oxazolo[3,2-a]pyrido[1,2-d]pyrazine-8-carboxamide] | 0.01 to 0.03 |
| C[C@@H]1CCO[C@H]2Cn3cc(C(=O)NCc4c(F)cncc4F)c(=O)c(O)c3C(=O)N12 [Compound 1.2.4, (4R,12aS)-7-hydroxy-N-[(3,5-difluoropyridin-4-yl)methyl]-4-methyl-6,8-dioxo-3,4,6,8,12,12a-hexahydro-2H-pyrido[1′,2′:4,5]pyrazino[2,1-b][1,3]oxazine-9-carboxamide] | 0.002 to 0.01 |
| C[C@@H]1CO[C@@]23CCC[C@@H]2n2cc(C(=O)NCc4c(F)cc(F)nc4F)c(=O)c(O)c2C(=O)N13 [Compound 2.1.3, (3aS,6R,13aS)-9-hydroxy-6-methyl-N-[(2,4,6-trifluoropyridin-3-yl)methyl]-8,10-dioxo-1,2,3,5,6,8,10,13a-octahydrocyclopenta[b][1,3]oxazolo[3,2-a]pyrido[1,2-d]pyrazine-11-carboxamide] | 0.002 to 0.01 |
